Assay results from US20250152606A1, “INDUCTION OF IRREVERSIBLE INFERTILITY IN FEMALE MAMMALIAN ANIMALS USING A SINGLE PROGESTERONE IMPLANT” (THE BOARD OF TRUSTEES OF THE UNIVERSITY OF ILLINOIS, priority 2022, published 2025).
Entries after “also recorded” stand apart in the source; their conditions may differ. Read-outs that look alike come from different tables or passages of the source.

Tests used:
uterine glands = conditions: cited from earlier work
[1] = Serum P4 in neonatal rats after P4 treatment (P4-specific ELISA); assay type: in vivo; conditions: repeated daily injections of P4 (Oil-P4 group)
Method: FIG. 2. Pharmacokinetics of progesterone treatment in neonatal rats. Three-day-old rats were treated with 2.0 mg P4 Silastic capsule, (n=5-7), injected daily with 0.5 mg P4 for 7 days (n=5-9), or vehicle (n=5-9).
(§1) Experiments with Silastic capsules. Neonatal female rats (3-day-old [D3]) were divided into 3 groups for the treatment (Chart 1). The Control group was subcutaneously (sc) injected with sesame oil daily for 7-days. The Oil-P4 group was injected sc with progesterone (P4) (0.5 mg P4/50 μl oil) daily for 7-days. The sC-P4 group was implanted sc with a given single P4 Silastic capsule (sC-P4) (2 mg P4/5 μl oil in a Silastic capsule having dimensions: ID 1.02 mm, OD 2.16 mm, Length 8 mm). Sera were collected by tail clipping (n=5-7) on days 6, 10, 14 and 24, and serum P4 was measured by P4-specific ELISA kit (EIA5486, DRG International Inc., NJ). Uterine histology was examined in weeks 7 and 28. Collected uterine tissues were fixed in 4% paraformaldehyde. Tissues were washed with ethanol, processed, and embedded in paraffin wax. Paraffin-embedded tissue blocks were cut into 6 μm thick sections. For general histological observation, slides were stained with hematoxylin and eosin (HE staining). The number of uterine glands was counted from HE-stained uterine tissue sections (n=2-4). At 5-months-old, the estrous cycle was monitored for 10 days by vaginal cytology (n=2-4). […]

female rats = experiment: Fertility test with fertility-proven male rats; assay type: in vivo; conditions: neonatally treated rats tested at 5 months
Method: Neonatal P4 Silastic capsule implant induces permanent infertility. Starting at 5-months of age, the estrous cycle was determined by microscopy of vaginal smears for 10 days (Table 1). […] After the estrous cycle observation, female rats were caged with fertility-proven male rats for 1 month to evaluate fertility. Seventy-five percent (¾) of the Control untreated and Oil-P4 groups were fertile, averaging 12 and 13 pups, respectively. By comparison, none of the sC-P4 was fertile.
as §1, with “Collected uterine tissues were fixed in 4% paraformaldehyde. Tissues were washed with ethanol, processed, and embedded in paraffin wax. Paraffin-embedded tissue blocks were cut into 6 μm thick sections. For general histological observation, slides were stained with hematoxylin and eosin (HE staining).” left out

uterine gland = conditions: repetitive injections of neonatal ewe lambs; oviduct, cervix, vagina not inhibited; cited from earlier work

maximum increase in serum P4 levels compared to the Control ([1]; 6 days after the start of injections) [fold]	time serum P4 remained significantly elevated ([1]; experimental day 16) [days]	SMILES	adenogenesis at PND 10 (uterine glands; mice treated with P4 during PND 3-5 or 7-9)	adenogenesis at PND 10 (uterine glands; mice treated with P4 during PND 3-9, 5-9, or 3-7)	uterine glands in adulthood (uterine glands; mice treated with P4 during PND 3-9)	uterine gland development on PND 20 (uterine glands; mice treated with P4 during PND 5-9 or 3-7)	fertility outcome (female rats)	adenogenesis (uterine gland)
2	10	CC(=O)[C@H]1CC[C@H]2[C@@H]3CCC4=CC(=O)CC[C@]4(C)[C@H]3CC[C@]12C [P4, progesterone]	not	abolished adenogenesis	lacked glands in adulthood; also recorded: lack uterine glands in adulthood	resumption of uterine gland development	insufficient to achieve infertility	–
–	–	CC(=O)O[C@]1(C(C)=O)CC[C@H]2[C@@H]3CCC4=CC(=O)CC[C@@H]4[C@H]3[C@@H](C)C[C@@]21C [norgestomet]	–	–	–	–	–	irreversibly inhibits adenogenesis
